# Experimental data reported in patent US8586611B2 (priority 2005, dated 2013).
# Columns and labels:
# Type in all cases: in vivo
# Phytophthora infestans [1] = test: whole plant or invertebrate; conditions: tomato late blight; spray 17 h after inoculation; compounds without asterisk (not 40 or 10 ppm)
# Plasmopara viticola = test: Test B: grape downy mildew, spray 24 h after inoculation (disease rating, 100 = 100% disease control); conditions: spray 24 h after inoculation, compounds without asterisk (not 40 or 10 ppm)
# Outline: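 Grape seedlings were inoculated with Plasmopara viticola and held 24 h saturated at 20 °C, then sprayed to run-off with compound suspension (acetone/water with 250 ppm Trem 014; 200 ppm ≈ 500 g/ha). After 5 days at 20 °C and 24 h saturation, disease was rated from 0 to 100% control versus untreated.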
# [2] = tested on: Erysiphe graminis f. sp. tritici; test: Test E: wheat powdery mildew, spray the day before inoculation (disease rating, 100 = 100% disease control); conditions: spray the day before inoculation, compounds without asterisk (not 40 or 10 ppm)
# Outline: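 Wheat seedlings sprayed to run-off with compound suspended in acetone/water 50/50 with 250 ppm Trem 014 (200 ppm equivalent to 500 g/ha); inoculated next day with Erysiphe graminis f. sp. tritici spore dust. Kept 7 days at 20° C, then rated 0–100% disease control versus controls.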
# [3] = tested on: Pseudoperonospora cubensis; test: Test F: cucumber downy mildew, DMSO/acetone/water test suspension, spray the day before inoculation (disease rating, 100 = 100% disease control); conditions: DMSO/acetone/water suspension, spray the day before inoculation, compounds without asterisk
# Description: The test compounds were first dissolved in dimethyl sulfoxide (DMSO) in an amount equal to 4% of the final volume and then suspended at the desired concentration (in ppm) in acetone and purified water (30/70 mix by volume). The resulting test suspensions were then used in test F. Spraying a 250 ppm test suspension on the test plants was the equivalent of a rate of 250 g/ha.
# The test suspension was sprayed on cucumber seedlings. The following day the seedlings were inoculated with a spore suspension of Pseudoperonospora cubensis (the causal agent of cucumber downy mildew) and incubated in a saturated atmosphere at 20° C. for 24 h, and then moved to a growth chamber at 20° C. for 6 days, after which disease ratings were made.
# Results for Tests A-F are given in Table A. In the table, a rating of 100 indicates 100% disease control and a rating of 0 indicates no disease control (relative to the controls). A dash (-) indicates no test results.
# Phytophthora infestans [4] = test: whole plant or invertebrate; conditions: tomato late blight; spray the day before inoculation; compounds without asterisk (not 40 or 10 ppm)
Structure (SMILES),"Test D disease rating (100 = 100% disease control, 0 = no disease control) (Phytophthora infestans [1]) [%]","Test B disease rating (100 = 100% disease control, 0 = no disease control) (Plasmopara viticola) [%]","Test E disease rating (100 = 100% disease control, 0 = no disease control) [2] [%]","Test F disease rating (100 = 100% disease control, 0 = no disease control) [3] [%]","Test C disease rating (100 = 100% disease control, 0 = no disease control) (Phytophthora infestans [4]) [%]"
C[C@H](c1ccccc1)N(C)C(=O)c1csc(C2CCN(C(=O)Cc3cc(Cl)ccc3Br)CC2)n1 [compound 86],100,99,0,86,99
C[C@H](c1ccccc1)N(C)C(=O)c1csc(C2CCN(C(=O)Cc3cc(C(F)(F)F)ccc3C(F)(F)F)CC2)n1 [compound 87],8,79,0,100,88
Cc1ccc(C)c(CC(=O)N2CCC(c3nc(C(=O)N(C)C(C)c4cccs4)cs3)CC2)c1 (centres unmarked) [compound 89],99,100,43,93,99
Cc1nc(CC(=O)N2CCC(c3nc(C(=O)N(C)[C@H](C)c4ccccc4)cs3)CC2)c(C)s1 [compound 92],100,83,0,100,100
Cc1ccc(C)c(CC(=O)N2CCC(c3nc(C(=O)N(C)C(C)c4ccccn4)cs3)CC2)c1 (centres unmarked) [compound 94],100,0,0,93,100
Cc1ccc(C)c(CC(=O)N2CCC(c3nc(C(=O)N(C)C(C)c4cccnc4)cs3)CC2)c1 (centres unmarked) [compound 95],83,0,0,97,100
CCc1cccc(CC(=O)N2CCC(c3nc(C(=O)N(C)[C@H](C)c4ccccc4)cs3)CC2)c1 [compound 119],33,95,89,100,99
Cc1ccc(C(F)(F)F)cc1CC(=O)N1CCC(c2nc(C(=O)N(C)[C@H](C)c3ccccc3)cs2)CC1 [compound 124],0,100,71,90,100
COc1ccc(C)cc1CC(=O)N1CCC(c2nc(C(=O)N(C)[C@H](C)c3ccccc3)cs2)CC1 [compound 125],99,100,94,100,100
Cc1cc(C(F)(F)F)nn1CC(=O)N1CCC(c2nc(C(=O)N(C)[C@H](C)c3ncc(Cl)cc3Cl)cs2)CC1 [compound 143],99,69,0,50,100
C[C@H](c1ccccc1)N(C)C(=O)c1coc(C2CCN(C(=O)Nc3cccc(C(F)(F)F)c3)CC2)n1 [compound 158],0,9,0,90,95
COc1ccc(C)cc1NC(=S)N1CCC(c2nc(C(=O)N(C)[C@H](C)c3ccccc3)cs2)CC1 [compound 159],91,95,73,93,99
C[C@H](c1ccccc1)N(C)C(=O)c1csc(C2CCN(C(=S)Nc3cccc(C(F)(F)F)c3)CC2)n1 [compound 160],0,47,0,50,40
Cc1ccc(C)c(CC(=O)N2CCC(c3nc(C(=O)N(C)Cc4ccccc4)cs3)CC2)c1 [compound 167],0,27,0,99,97
Cc1ccc(C)c(CC(=O)N2CCC(c3nc(C(=O)N(C)C4CSCc5ccccc54)cs3)CC2)c1 (centres unmarked) [compound 172],100,43,0,99,100
Cc1ccc(C)c(CC(=O)N2CCC(c3nc(C(=O)N(C)C4CCCc5c4ccc4ccccc54)cs3)CC2)c1 (centres unmarked) [compound 173],0,0,0,95,0
Cc1ccc(C)c(CC(=O)N2CCC(c3nc(C(=O)N(C)C4CCCCC4)cs3)CC2)c1 [compound 174],63,68,0,90,100
Cc1ccc(C)c(CC(=O)N2CCC(c3nc(C(=O)N(C)C(C)(C)Cc4ccc(F)cc4)cs3)CC2)c1 [compound 175],0,93,0,43,95
Cc1ccc(C)c(CC(=O)N2CCC(c3nc(C(=O)N(C)C4CCCC(C)C4)cs3)CC2)c1 (centres unmarked) [compound 176],24,15,0,49,95
